Patent publication US9914737B2, “Triazolopyrimidinone or triazolopyridinone derivatives, and use thereof” (ST PHARM CO., LTD., priority 2014, dated 2018)
Where a name gives a salt, the structure may show the parent alone.

target: T1, tankyrase 1 (Homo sapiens, UniProt O95271); test: Analysis of activity of tankyrase 1 (Trevigen kit, ELISA absorbance at 450 nm); format: biochemical; conditions: not given
T1 construct: purchased Trevigen 4700-096-K
T1 sequence (O95271 1-1327): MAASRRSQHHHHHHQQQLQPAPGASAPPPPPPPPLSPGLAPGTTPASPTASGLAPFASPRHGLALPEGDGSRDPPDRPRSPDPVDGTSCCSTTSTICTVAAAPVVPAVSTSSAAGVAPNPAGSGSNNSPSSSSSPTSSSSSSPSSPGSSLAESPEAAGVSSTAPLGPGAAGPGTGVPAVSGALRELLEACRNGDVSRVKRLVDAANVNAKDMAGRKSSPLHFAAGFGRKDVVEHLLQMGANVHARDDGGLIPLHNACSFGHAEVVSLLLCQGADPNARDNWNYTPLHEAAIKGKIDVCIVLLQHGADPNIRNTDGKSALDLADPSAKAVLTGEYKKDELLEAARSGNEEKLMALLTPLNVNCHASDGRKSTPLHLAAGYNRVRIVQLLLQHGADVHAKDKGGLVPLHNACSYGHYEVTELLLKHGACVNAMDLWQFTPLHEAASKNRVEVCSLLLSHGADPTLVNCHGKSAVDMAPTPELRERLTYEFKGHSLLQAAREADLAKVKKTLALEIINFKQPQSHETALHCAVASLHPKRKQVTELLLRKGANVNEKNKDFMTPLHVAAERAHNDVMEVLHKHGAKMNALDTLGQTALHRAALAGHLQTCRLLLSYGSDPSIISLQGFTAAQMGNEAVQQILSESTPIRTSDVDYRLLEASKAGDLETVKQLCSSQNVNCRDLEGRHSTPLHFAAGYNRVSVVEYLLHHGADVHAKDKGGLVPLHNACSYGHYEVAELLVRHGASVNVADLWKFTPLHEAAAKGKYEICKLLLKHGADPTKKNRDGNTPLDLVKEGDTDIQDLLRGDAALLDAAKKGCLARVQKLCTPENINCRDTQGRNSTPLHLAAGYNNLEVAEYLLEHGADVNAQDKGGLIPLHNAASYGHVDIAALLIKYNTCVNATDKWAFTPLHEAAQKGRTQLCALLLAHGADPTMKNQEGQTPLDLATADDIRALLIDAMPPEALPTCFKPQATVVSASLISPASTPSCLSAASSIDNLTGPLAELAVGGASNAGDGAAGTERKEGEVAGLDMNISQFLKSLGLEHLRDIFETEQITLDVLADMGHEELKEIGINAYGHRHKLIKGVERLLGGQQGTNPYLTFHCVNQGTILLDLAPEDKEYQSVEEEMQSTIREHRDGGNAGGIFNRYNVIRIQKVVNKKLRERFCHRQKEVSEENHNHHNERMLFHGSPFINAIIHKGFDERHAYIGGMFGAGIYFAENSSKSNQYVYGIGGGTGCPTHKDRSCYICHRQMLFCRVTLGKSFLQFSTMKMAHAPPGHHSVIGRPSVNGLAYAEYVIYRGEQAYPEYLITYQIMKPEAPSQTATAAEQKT
Method: Activities of novel compounds synthesized according to Examples 1 to 72 against tankyrase 1 were analyzed using a Trevigen kit (Cat. No. 4700-096-K). Poly PAR histone protein-coated 96-well plate, anti-PAR monoclonal antibody and goat anti-mouse IgG-HRP were used for measurement of absorbance by ELISA method. Specifically, 20× I-PAR assay buffer was diluted to 1× by adding water, and 50 μL of the diluted buffer was added to each well of the 96-well plate followed by reacting at rt for 30 min. Then, the supernatant was completely removed from each well and 10 μL of 1× I-PAR assay buffer and 15 μL of assay substrate were added to each well along with 1 μL of a 50× solution of inhibitors to be tested, which were the compounds obtained in the Examples 1 to 72. 10 mUnits/μL of tankyrase 1 enzyme was diluted 50-fold with 1× I-PAR assay buffer and 25 μL of the diluted enzyme was added to each well and reacted while stirring at rt for 30 min. One without any compound of the present invention was used as a positive control and another containing 1× I-PAR assay buffer with the same volume instead of tankyrase 1 enzyme was used as a negative control. Upon completion of the reaction, 200 μL of PBSX, which was prepared by adding 0.1% triton X-100 to PBS, was added and removed and this washing process was repeated twice. Washing was repeated twice more using PBS in the same manner. 5× antibody diluent was diluted with distilled water to 1× concentration, 50 μL of the diluted goat anti-mouse IgG-HRP to 1/2000 was added to each well and reacted while stirring at rt for 30 min. Washes were carried out twice using PBSX and PBS, respectively. After adding 50 μL of TACS-sapphire to each well of the plate, the plate was blocked from light to react for 10 min to 15 min and the color of the reaction solution turned blue. To stop the reaction, 50 μL of 0.2N HCl was added to turn the solution yellow. Finally, the absorbance of the resulting solution was measured at 450 nm.

Question: `Cn1nnc2c(=O)[nH]c(N3CCN(c4ccccc4F)CC3)nc21` [compound 1, 5-(4-(2-Fluorophenyl)piperazin-1-yl)-3-methyl-3H-[1,2,3]triazolo[4,5-d]pyrimidin-7(6H)-one] was tested. Which IC50 did it give?
Answer: 66.7 nM

Question: How did the IC50 turn out when `COCCOc1cc(F)c(N2CCN(c3nc4c(nnn4C)c(=O)[nH]3)CC2)c(F)c1` [compound 2, 5-(4-(2,6-Difluoro-4-(2-methoxyethoxy)phenyl)piperazin-1-yl)-3-methyl-3H-[1,2,3]triazolo[4,5-d]pyrimidin-7(6H)-one] was run?
Answer: 29.9 nM

Question: How did the IC50 turn out when `CC(C)Oc1cc(F)c(N2CCN(c3nc4c(nnn4C)c(=O)[nH]3)CC2)c(F)c1` [compound 9, 5-(4-(2,6-Difluoro-4-isopropoxyphenyl)piperazin-1-yl)-3-methyl-3H-[1,2,3]triazolo[4,5-d]pyrimidin-7(6H)-one] was run?
Answer: 60.9 nM

Question: With `Cn1nnc2c(=O)[nH]c(N3CCN(c4c(F)cc(OC5COC5)cc4F)CC3)nc21` [compound 15, 5-(4-(2,6-Difluoro-4-(oxetan-3-yloxy)phenyl)piperazin-1-yl)-3-methyl-3H-[1,2,3]triazolo[4,5-d]pyrimidin-7(6H)-one] as the compound, how does the IC50 read?
Answer: 24.7 nM

Question: `Cn1nnc2c(=O)[nH]c(N3CCN(c4c(F)cccc4F)CC3)nc21` [compound 21, 5-(4-(2,6-Difluorophenyl)piperazin-1-yl)-3-methyl-3H-[1,2,3]triazolo[4,5-d]pyrimidin-7(6H)-one] was tested. Which IC50 did it give?
Answer: 8.9 nM

Question: `Cn1nnc2c(=O)[nH]c(N3CCN(c4c(F)cc(F)cc4F)CC3)nc21` [compound 22, 3-Methyl-5-(4-(2,4,6-trifluorophenyl)piperazin-1-yl)-3H-[1,2,3]triazolo[4,5-d]pyrimidin-7(6H)-one] was tested. Which IC50 did it give?
Answer: 49.7 nM

same assay, conditions: tankyrase 1 enzyme, Trevigen kit Cat. No. 4700-096-K, 30 min at rt; read-out: TNKS1 (IC50)

Question: With `Cn1nnc2c(=O)[nH]c(N3CCN(c4c(F)cc(OCc5ccccc5)cc4F)CC3)nc21` [compound 3, 5-(4-(4-(Benzyloxy)-2,6-difluorophenyl)piperazin-1-yl)-3-methyl-3H-[1,2,3]triazolo[4,5-d]pyrimidin-7(6H)-one] as the compound, how does the IC50 read?
Answer: 207 nM

Question: Which IC50 does the source give for `Cn1nnc2c(=O)[nH]c(N3CCN(c4c(F)cc(OCCN5CCOCC5)cc4F)CC3)nc21` [compound 4, 5-(4-(2,6-Difluoro-4-(2-morpholinoethoxy)phenyl)piperazin-1-yl)-3-methyl-3H-[1,2,3]triazolo[4,5-d]pyrimidin-7(6H)-one] here?
Answer: 38.6 nM

Question: For `Cn1nnc2c(=O)[nH]c(N3CCN(c4c(F)cc(OCCN5CCCCC5)cc4F)CC3)nc21` [compound 5, 5-(4-(2,6-Difluoro-4-(2-(piperidin-1-yl)ethoxy)phenyl)piperazin-1-yl)-3-methyl-3H-[1,2,3]triazolo[4,5-d]pyrimidin-7(6H)-one], which IC50 is on record?
Answer: 14.2 nM

Question: For `CN(C)CCOc1cc(F)c(N2CCN(c3nc4c(nnn4C)c(=O)[nH]3)CC2)c(F)c1` [compound 6, 5-(4-(4-(2-(Dimethylamino)ethoxy)-2,6-difluorophenyl)piperazin-1-yl)-3-methyl-3H-[1,2,3]triazolo[4,5-d]pyrimidin-7(6H)-one], which IC50 is on record?
Answer: 16.3 nM

Question: With `Cn1nnc2c(=O)[nH]c(N3CCN(c4c(F)cc(OCCO)cc4F)CC3)nc21` [compound 7, 5-(4-(2,6-Difluoro-4-(2-hydroxyethoxy)phenyl)piperazin-1-yl)-3-methyl-3H-[1,2,3]triazolo[4,5-d]pyrimidin-7(6H)-one] as the compound, how does the IC50 read?
Answer: 44 nM

Question: For `CC(=O)OCCOc1cc(F)c(N2CCN(c3nc4c(nnn4C)c(=O)[nH]3)CC2)c(F)c1` [compound 8, 2-(3,5-Difluoro-4-(4-(3-methyl-7-oxo-6,7-dihydro-3H-[1,2,3]triazolo[4,5-d]pyrimidin-5-yl)piperazin-1-yl)phenoxy)ethyl acetate], which IC50 is on record?
Answer: 46.9 nM

Question: How did the IC50 turn out when `C[C@@H](N)C(=O)OCCOc1cc(F)c(N2CCN(c3nc4c(nnn4C)c(=O)[nH]3)CC2)c(F)c1` [compound 10, (R)-2-(3,5-difluoro-4-(4-(3-methyl-7-oxo-6,7-dihydro-3H-[1,2,3]triazolo[4,5-d]pyrimidin-5-yl)piperazin-1-yl)phenoxy)ethyl2-aminopropanoate hydrochloride] was run?
Answer: 32 nM

Question: How did the IC50 turn out when `C[C@H](N)C(=O)OCCOc1cc(F)c(N2CCN(c3nc4c(nnn4C)c(=O)[nH]3)CC2)c(F)c1` [compound 11, (S)-2-(3,5-difluoro-4-(4-(3-methyl-7-oxo-6,7-dihydro-3H-[1,2,3]triazolo[4,5-d]pyrimidin-5-yl)piperazin-1-yl)phenoxy)ethyl2-aminopropanoate hydrochloride] was run?
Answer: 14.5 nM

Question: Which IC50 does the source give for `Cn1nnc2c(=O)[nH]c(N3CCN(c4c(F)cc(OCC(O)CO)cc4F)CC3)nc21` (stereo not shown) [compound 12, 5-(4-(4-(2,3-Dihydroxypropoxy)-2,6-difluorophenyl)piperazin-1-yl)-3-methyl-3H-[1,2,3]triazolo[4,5-d]pyrimidin-7(6H)-one] here?
Answer: 12.9 nM

Question: With `Cn1nnc2c(=O)[nH]c(N3CCN(c4c(F)cc(CN5CCOCC5)cc4F)CC3)nc21` [compound 13, 5-(4-(2,6-Difluoro-4-(morpholinomethyl)phenyl)piperazin-1-yl)-3-methyl-3H-[1,2,3]triazolo[4,5-d]pyrimidin-7(6H)-one] as the compound, how does the IC50 read?
Answer: 28 nM

Question: Which IC50 does the source give for `CN1CCN(Cc2cc(F)c(N3CCN(c4nc5c(nnn5C)c(=O)[nH]4)CC3)c(F)c2)CC1` [compound 14, 5-(4-(2,6-Difluoro-4-((4-methylpiperazin-1-yl)methyl)phenyl)piperazin-1-yl)-3-methyl-3H-[1,2,3]triazolo[4,5-d]pyrimidin-7(6H)-one] here?
Answer: 41.5 nM

Question: `Cn1nnc2c(=O)[nH]c(N3CCN(c4c(F)cc(OC(CO)CCl)cc4F)CC3)nc21` (stereo not shown) [compound 16, 5-(4-(4-(1-Chloro-3-hydroxypropan-2-yloxy)-2,6-difluorophenyl)piperazin-1-yl)-3-methyl-3H-[1,2,3]triazolo[4,5-d]pyrimidin-7(6H)-one] was tested. Which IC50 did it give?
Answer: 28.6 nM

Question: How did the IC50 turn out when `CC(O)c1cc(F)c(N2CCN(c3nc4c(nnn4C)c(=O)[nH]3)CC2)c(F)c1` (stereo not shown) [compound 17, 5-(4-(2,6-Difluoro-4-(1-hydroxyethyl)phenyl)piperazin-1-yl)-3-methyl-3H-[1,2,3]triazolo[4,5-d]pyrimidin-7(6H)-one] was run?
Answer: 17.6 nM

Question: Which IC50 does the source give for `COC(C)c1cc(F)c(N2CCN(c3nc4c(nnn4C)c(=O)[nH]3)CC2)c(F)c1` (stereo not shown) [compound 18, 5-(4-(2,6-Difluoro-4-(1-methoxyethyl)phenyl)piperazin-1-yl)-3-methyl-3H-[1,2,3]triazolo[4,5-d]pyrimidin-7(6H)-one] here?
Answer: 30 nM

Question: With `Cn1nnc2c(=O)[nH]c(N3CCN(c4c(F)cc(OCCCCCC(=O)O)cc4F)CC3)nc21` [compound 19, 6-(3,5-Difluoro-4-(4-(3-methyl-7-oxo-6,7-dihydro-3H-[1,2,3]triazolo[4,5-d]pyrimidin-5-yl)piperazin-1-yl)phenoxy)hexanoic acid] as the compound, how does the IC50 read?
Answer: 80 nM

Question: For `COCCN(C)Cc1cc(F)c(N2CCN(c3nc4c(nnn4C)c(=O)[nH]3)CC2)c(F)c1` [compound 20, 5-(4-(2,6-Difluoro-4-(((2-methoxyethyl)(methyl)amino)methyl)phenyl)piperazin-1-yl)-3-methyl-3H-[1,2,3]triazolo[4,5-d]pyrimidin-7(6H)-one], which IC50 is on record?
Answer: 83.1 nM
